The source of these data is patent US9650365B2 (UNIVERSITY OF CONNECTICUT, priority 2014, dated 2017).

Several values for one entry are separate records, joined by “and”; a condition that tells them apart may be missing. Equal entries are not always repeated. Where two headings read alike, the source gives them in different places.

One experiment relates to Gli1 in M2s. The experiment can be described thus: Down-regulation of Gli1 in M2s. It counts as cell-based. The text has this:
Additional analogues have been synthesized and characterized in the assays described above.

Another experiment concerns HUVEC. The experiment in a line: HUVEC proliferation (MTS). Format: cell-based, human. Particulars: Homo sapiens, HUVEC. The method in brief: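 HUVECs seeded at 3,000 cells/well, attached overnight, then treated with varying drug concentrations. Proliferation read by MTS/PMS after 72 h.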
For experiment [1], the system named is hedgehog (Hh) signaling pathway. The note with it: background; cited from earlier work.
The target in a further experiment is T1, BCRP (Homo sapiens, UniProt Q9UNQ0).
T1 construct: expressed in transfected cells; host or cells: Madin Darby canine kidney cells (MDCK)
T1 sequence (Q9UNQ0 1-655): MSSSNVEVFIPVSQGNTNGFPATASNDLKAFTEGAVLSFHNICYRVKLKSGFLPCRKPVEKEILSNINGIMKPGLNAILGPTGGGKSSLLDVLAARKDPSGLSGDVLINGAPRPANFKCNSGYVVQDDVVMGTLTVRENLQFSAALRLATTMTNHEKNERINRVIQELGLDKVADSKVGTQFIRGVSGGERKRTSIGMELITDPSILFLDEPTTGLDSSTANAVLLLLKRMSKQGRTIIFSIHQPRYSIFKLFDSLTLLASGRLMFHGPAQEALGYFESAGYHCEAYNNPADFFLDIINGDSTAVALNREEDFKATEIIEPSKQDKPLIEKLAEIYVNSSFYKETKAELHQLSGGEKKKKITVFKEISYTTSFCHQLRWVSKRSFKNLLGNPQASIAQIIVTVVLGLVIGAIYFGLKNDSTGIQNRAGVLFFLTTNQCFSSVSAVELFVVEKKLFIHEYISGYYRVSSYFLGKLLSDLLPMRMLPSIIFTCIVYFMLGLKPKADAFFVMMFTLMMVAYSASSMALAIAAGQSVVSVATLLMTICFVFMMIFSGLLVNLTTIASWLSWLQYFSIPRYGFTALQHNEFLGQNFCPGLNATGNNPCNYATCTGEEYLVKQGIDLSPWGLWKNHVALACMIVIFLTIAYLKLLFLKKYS
The note with it: read-out: IC50 BCRP inhibition; cited from earlier work.

The subject of experiment [2] is Hh signaling (Gli1 mRNA) in C3H10T1/2 cells. The experiment can be described thus: Down-regulation of endogenous Gli1 mRNA in Hh-dependent C3H10T1/2 cells. Particulars: Mus musculus. It counts as cell-based, mouse. The method in brief: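 Hh pathway activated in C3H10T1/2 cells with exogenous agonist (recombinant Hh ligand or small molecule) alongside inhibitor; Gli1 mRNA measured by qPCR. Concentration-dependent Gli1 reduction also assessed in murine BCC ASZ cells; values mean±SEM, ≥2 experiments in triplicate.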

The test system of experiment [3] is MERP MB cells (Math1-Cre-ER; Ptc fl/fl medulloblastoma). The experiment in a line: Anti-proliferation in primary MERP MB cells. It counts as cell-based, mice. The note with it: Mus musculus, 48 h, read-out: GI50 (μM) MERP MB, 48 hr incubation. As for the experimental part: General Information. Protocols for general cell culture, qPCR and Hh inhibition in C3H10T1/2 and ASZ cells are as previously described.^28 Protocols for the initiation and growth of Math1-Cre-ER; Ptc^fl/fl medulloblastoma tumors, isolation and in vitro culture of MERP MB cells, as wells as the anti-proliferation and qPCR studies performed in these cells were as previously described.^a Sonic Hedgehog (C25II) recombinant mouse protein was purchased from Life Technologies. aData was analyzed using GraphPad Prism 5 and reported values represent mean±SEM for at least two separate experiments performed in triplicate.
In this well-studied model system for evaluating small molecule inhibition of Hh signaling, addition of an exogenous Hh agonist (recombinant Hh ligand or small molecule) results in a characteristic increase in Gli1 mRNA expression. Concomitant incubation with a pathway inhibitor reduces Gli1 expression. […] In addition, several compounds were evaluated for their anti-proliferative effects in primary Hh-dependent medulloblastoma cells isolated from conditional patched knockout (Math1-Cre-ER; Ptc^fl/fl, MERP) mice. […] Finally, each of these analogues was evaluated for its ability to inhibit proliferation in human umbilical vein […] cells (HUVECs). In vivo angiogenesis is dependent on endothelial cell proliferation; therefore, the inhibition of HUVEC proliferation is commonly utilized as an early stage in vitro model of anti-angiogenic activity.

Where [4] appears, read: C3H 10T1/2, read-out: Hh inhibition.

Take `CCC(C)n1ncn(-c2ccc(N3CCN(c4ccc(OCC5COC(Cn6cncn6)(c6ccc(Cl)cc6Cl)O5)cc4)CC3)cc2)c1=O` (centres unmarked) [ITZ, itraconazole, reference compound]: the IC50 was 0.3 µM and 0.52 µM in the experiment on Gli1 in M2s; 450 ± 140 nM in the experiment on HUVEC (read-out: HUVEC Anti-proliferation); 690 nM in experiment [1]; ~1000 nM at BCRP; 0.074 µM in experiment [2] (C3H 10T1/2, 24 h, read-out: IC50 (μM) C3H10T1/2, 24 hr incubation); 0.074 ± 0.02 µM in experiment [2] (C3H 10T1/2, read-out: Hh pathway inhibition C3H10T1/2, down-regulation of endogenous Gli1 mRNA). The IC50 in experiment [2] (C3H 10T1/2, read-out: IC50 (μM) Gli1-C3Hs) amounted to 0.07 ± 0.02 µM; in experiment [2] (C3H 10T1/2, read-out: IC50 down-regulation of Gli1, C3H10T1/2 cells) it was 0.074 µM. The GI50 in the experiment on HUVEC (72 h, read-out: GI50 (μM) HUVEC, 72 h) is 0.4 ± 0.03 µM; with HUVEC (read-out: GI50 HUVEC proliferation), 0.45 µM; in experiment [3] it was 0.44 ± 0.08 µM. For the same compound, the inhibition at 1 µM was 96% in experiment [2] (C3H 10T1/2, read-out: % Hh inhibition) and ~98% in experiment [2] (setting [4]). In experiment [2] (setting [4]), the inhibition at 0.5 µM is ~70%.
